Experimental data reported in publication PMC12778052 (Science Advances, 2026).

Assay: in vivo
Set-up: species or system NSG mice
Conditions: mouse; for tissue uptake at 2 min / tissue uptake at 0.25 h / tissue uptake at 1 h / tissue uptake at 2 h / tissue uptake at 3 h / tissue to tissue ratio at 2 min / tissue to tissue ratio at 0.25 h / tissue to tissue ratio at 1 h / tissue to tissue ratio at 2 h / tissue to tissue ratio at 3 h: NSG, iv, 1.85 MBq, total radioactivity
Experimental: Mice were injected with cancer cells subcutaneously in 100 μl of PBS (top right flank) for all tumor models. The following cell numbers were used: HT1376 (4 million), UC9 (3 million), UC14 (3 million), RT112 (1.5 million), T24(3 million), and SCaBER (4 million). Mice with tumor volumes of 100 to 200 mm^3 were used for all experiments. A minimum of four mice were used for all biodistribution studies. A minimum of seven mice were used in PD experiment to account for greater variability. To validate imaging studies, ex vivo biodistribution studies were conducted in mice with tumors of 100 to 200 mm^3 in size. […] In all other studies, a 60-min time point was chosen. Selected tissues (blood, skin, muscle, bone, salivary glands, tumor, lungs, heart, liver, pancreas, spleen, kidneys, bladder, and testicles) were collected, weighed, and counted, and their %IA/g values were calculated as described previously ([33]). For EV PD studies, fewer organs were harvested to accommodate a higher number of mice.

With `CSCC[C@@H]1NC(=O)[C@@H]2CSCCC(=O)N3CN(CN(C3)C(=O)CCSC[C@H](NC(=O)CCOCCOCCOCCOCCOCCOCCOCCOCCOCCOCCOCCOCCNC(=O)CN3CCN(CC(=O)O)CCN(CC(=O)O)CC3)C(=O)N3CCC[C@H]3C(=O)N[C@@H](Cc3cccc4ccccc34)C(=O)N[C@@H](CC(=O)O)C(=O)N2)C(=O)CCSC[C@@H](C(N)=O)NC(=O)[C@H](Cc2c[nH]c3ccccc23)NC(=O)[C@@H]2C[C@@H](O)CN2C(=O)[C@@H]2CCCN2C(=O)[C@H]([C@@H](C)O)NC(=O)[C@H](CO)NC(=O)[C@H](Cc2c[nH]c3ccccc23)NC(=O)[C@@H](CC(=O)O)NC(=O)[C@H](CCCCNC(=N)N)NC1=O` [[^68Ga]AJ647, metal not drawn] the tissue uptake at 2 min (Blood) was 35.8 ± 3.64 %ID/g, the tissue uptake at 0.25 h (Blood) was 2.94 ± 0.68 %ID/g and the tissue uptake at 1 h (Blood) was 0.84 ± 0.22 %ID/g. The tissue uptake at 2 h (Blood) was 0.28 ± 0.06 %ID/g, the tissue uptake at 3 h (Blood) was 0.32 ± 0.09 %ID/g and the tissue uptake at 2 min (Femur) was 1.88 ± 0.29 %ID/g. It also gave a tissue uptake at 0.25 h (Femur) of 1.3 ± 0.05 %ID/g, a tissue uptake at 1 h (Femur) of 0.57 ± 0.18 %ID/g and a tissue uptake at 2 h (Femur) of 0.27 ± 0.09 %ID/g. It also gave a tissue uptake at 3 h (Femur) of 0.34 ± 0.09 %ID/g, a tissue uptake at 2 min (Heart) of 11.3 ± 0.51 %ID/g and a tissue uptake at 0.25 h (Heart) of 1.15 ± 0.34 %ID/g. For the same compound, the tissue uptake at 1 h (Heart) was 0.43 ± 0.07 %ID/g, the tissue uptake at 2 h (Heart) was 0.19 ± 0.01 %ID/g and the tissue uptake at 3 h (Heart) was 0.22 ± 0.01 %ID/g. It also gave a tissue uptake at 2 min (Liver) of 6.45 ± 1.39 %ID/g, a tissue uptake at 0.25 h (Liver) of 1.19 ± 0.3 %ID/g and a tissue uptake at 1 h (Liver) of 0.45 ± 0.09 %ID/g. It also gave a tissue uptake at 2 h (Liver) of 0.21 ± 0.07 %ID/g, a tissue uptake at 3 h (Liver) of 0.23 ± 0.02 %ID/g and a tissue uptake at 2 min (Lung) of 24.2 ± 7.05 %ID/g. The tissue uptake at 0.25 h (Lung) was 3.66 ± 0.5 %ID/g, the tissue uptake at 1 h (Lung) was 1.66 ± 0.25 %ID/g and the tissue uptake at 2 h (Lung) was 0.81 ± 0.28 %ID/g. The tissue uptake at 3 h (Lung) was 0.47 ± 0.2 %ID/g, the tissue uptake at 2 min (Muscle) was 0.96 ± 0.19 %ID/g and the tissue uptake at 0.25 h (Muscle) was 0.93 ± 0.36 %ID/g. It also gave a tissue uptake at 1 h (Muscle) of 0.38 ± 0.06 %ID/g, a tissue uptake at 2 h (Muscle) of 0.2 ± 0.11 %ID/g and a tissue uptake at 3 h (Muscle) of 0.18 ± 0.05 %ID/g. For the same compound, the tissue uptake at 2 min (Salivary glands) was 6.3 ± 1.24 %ID/g, the tissue uptake at 0.25 h (Salivary glands) was 4.74 ± 0.94 %ID/g and the tissue uptake at 1 h (Salivary glands) was 1.48 ± 0.18 %ID/g. The tissue uptake at 2 h (Salivary glands) was 0.67 ± 0.09 %ID/g, the tissue uptake at 3 h (Salivary glands) was 0.69 ± 0.07 %ID/g and the tissue uptake at 2 min (Skin) was 1.13 ± 0.16 %ID/g. It also gave a tissue uptake at 0.25 h (Skin) of 2.74 ± 0.5 %ID/g, a tissue uptake at 1 h (Skin) of 1.45 ± 0.33 %ID/g and a tissue uptake at 2 h (Skin) of 0.82 ± 0.22 %ID/g. For the same compound, the tissue uptake at 3 h (Skin) was 0.66 ± 0.12 %ID/g, the tissue uptake at 2 min (Small intestine) was 0.85 ± 0.23 %ID/g and the tissue uptake at 0.25 h (Small intestine) was 0.68 ± 0.23 %ID/g. The tissue uptake at 1 h (Small intestine) was 0.52 ± 0.17 %ID/g, the tissue uptake at 2 h (Small intestine) was 0.16 ± 0.02 %ID/g and the tissue uptake at 2 min (Stomach) was 0.34 ± 0.11 %ID/g. The tissue uptake at 0.25 h (Stomach) was 0.49 ± 0.36 %ID/g, the tissue uptake at 2 h (Stomach) was 0.13 ± 0.04 %ID/g and the tissue uptake at 2 min (Thymus) was 15.7 ± 5.42 %ID/g. It also gave a tissue uptake at 0.25 h (Thymus) of 2.38 ± 0.7 %ID/g, a tissue uptake at 1 h (Thymus) of 0.71 ± 0.3 %ID/g and a tissue uptake at 2 h (Thymus) of 0.67 ± 0.21 %ID/g. The tissue uptake at 3 h (Thymus) was 0.52 ± 0.23 %ID/g, the tissue uptake at 2 min (Tumor) was 0.72 ± 0.31 %ID/g and the tissue uptake at 0.25 h (Tumor) was 3.75 ± 0.86 %ID/g. For the same compound, the tissue uptake at 1 h (Tumor) was 3.72 ± 0.36 %ID/g, the tissue uptake at 2 h (Tumor) was 2.06 ± 0.49 %ID/g and the tissue uptake at 3 h (Tumor) was 1.39 ± 0.32 %ID/g. It also gave a tissue to tissue ratio at 2 min (Tumor/blood ratio) of 0.02 ± 0.01, a tissue to tissue ratio at 0.25 h (Tumor/blood ratio) of 1.41 ± 0.4 and a tissue to tissue ratio at 1 h (Tumor/blood ratio) of 4.6 ± 0.47. The tissue to tissue ratio at 2 h (Tumor/blood ratio) was 7.27 ± 0.76, the tissue to tissue ratio at 3 h (Tumor/blood ratio) was 4.58 ± 1.33 and the tissue to tissue ratio at 2 min (Tumor/muscle ratio) was 0.79 ± 0.45. For the same compound, the tissue to tissue ratio at 0.25 h (Tumor/muscle ratio) was 4.23 ± 0.94, the tissue to tissue ratio at 1 h (Tumor/muscle ratio) was 10.1 ± 2.19 and the tissue to tissue ratio at 2 h (Tumor/muscle ratio) was 11.3 ± 3.03. For the same compound, the tissue to tissue ratio at 3 h (Tumor/muscle ratio) was 8.2 ± 4.02, the tissue uptake at 2 min (male, Adrenals) was 4.81 ± 2.58 %ID/g and the tissue uptake at 0.25 h (male, Adrenals) was 2.6 ± 1.1 %ID/g. The tissue uptake at 1 h (male, Adrenals) was 4.45 ± 2.03 %ID/g, the tissue uptake at 3 h (male, Adrenals) was 3.8 ± 0.47 %ID/g and the tissue uptake at 2 min (male, Bladder) was 1.72 ± 0.24 %ID/g. The tissue uptake at 0.25 h (male, Bladder) was 24.1 ± 15.3 %ID/g, the tissue uptake at 1 h (male, Bladder) was 39.5 ± 21.3 %ID/g and the tissue uptake at 2 h (male, Bladder) was 22.6 ± 6.46 %ID/g. It also gave a tissue uptake at 3 h (male, Bladder) of 58 ± 24.8 %ID/g, a tissue uptake at 2 min (male, Brain) of 0.54 ± 0.15 %ID/g and a tissue uptake at 0.25 h (male, Brain) of 0.1 ± 0.02 %ID/g. It also gave a tissue uptake at 1 h (male, Brain) of 0.06 ± 0.01 %ID/g, a tissue uptake at 2 h (male, Brain) of 0.06 ± 0.02 %ID/g and a tissue uptake at 3 h (male, Brain) of 0.06 ± 0.02 %ID/g. The tissue uptake at 0.25 h (male, Kidney) was 20.4 ± 3.7 %ID/g, the tissue uptake at 1 h (male, Kidney) was 30.8 ± 4.37 %ID/g and the tissue uptake at 2 h (male, Kidney) was 17.3 ± 12.9 %ID/g. The tissue uptake at 2 min (male, Large intestine) was 0.25 ± 0.16 %ID/g, the tissue uptake at 0.25 h (male, Large intestine) was 0.41 ± 0.11 %ID/g and the tissue uptake at 3 h (male, Large intestine) was 0.18 ± 0.05 %ID/g. It also gave a tissue uptake at 2 min (male, Pancreas) of 2.39 ± 0.72 %ID/g, a tissue uptake at 0.25 h (male, Pancreas) of 2.5 ± 0.38 %ID/g and a tissue uptake at 1 h (male, Pancreas) of 0.93 ± 0.03 %ID/g. It also gave a tissue uptake at 2 h (male, Pancreas) of 0.3 ± 0.06 %ID/g, a tissue uptake at 3 h (male, Pancreas) of 0.42 ± 0.02 %ID/g and a tissue uptake at 2 min (male, Spleen) of 1.04 ± 0.23 %ID/g. For the same compound, the tissue uptake at 0.25 h (male, Spleen) was 4.32 ± 1.31 %ID/g, the tissue uptake at 1 h (male, Spleen) was 1.75 ± 0.21 %ID/g and the tissue uptake at 2 h (male, Spleen) was 0.84 ± 0.17 %ID/g. The tissue uptake at 3 h (male, Spleen) was 0.83 ± 0.07 %ID/g, the tissue uptake at 2 min (male, Testicles) was 0.79 ± 0.07 %ID/g and the tissue uptake at 0.25 h (male, Testicles) was 0.86 ± 0.12 %ID/g. It also gave a tissue uptake at 1 h (male, Testicles) of 0.74 ± 0.2 %ID/g, a tissue uptake at 2 h (male, Testicles) of 0.52 ± 0.17 %ID/g and a tissue uptake at 3 h (male, Testicles) of 0.93 ± 0.5 %ID/g. For the same compound, the “blood pool activity cleared” value was “more than 90%”.
